Measurements taken from PubChem BioAssay (NCI).
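Five concentrations, 48 hours, 96-well plates. TGI: concentration producing complete growth inhibition.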

Columns and labels:
Assay in all cases: NCI tumour cell line growth inhibition, 48 h
[1] = system: UO-31 renal
[2] = system: MDA-N
[3] = system: UACC-62 melanoma
[4] = system: HCT-116 colon
[5] = system: HOP-92 NSCLC
[6] = system: HS 578T breast
[7] = system: RXF 393 renal
[8] = system: OVCAR-5 ovarian
[9] = system: SF-268 CNS
[10] = system: ACHN renal
[11] = system: MOLT-4 leukemia
[12] = system: UACC-257 melanoma
[13] = system: LOX IMVI melanoma
[14] = system: SN12C renal
[15] = system: SF-539 CNS
[16] = system: SNB-75 CNS
[17] = system: M14 melanoma
[18] = system: SR leukemia
[19] = system: EKVX NSCLC
[20] = system: COLO 205 colon
[21] = system: 786-0 renal
[22] = system: OVCAR-4 ovarian
[23] = system: SK-MEL-5 melanoma
[24] = system: SK-MEL-2 melanoma
[25] = system: HCC-2998 colon
[26] = system: DU-145 prostate
[27] = system: PC-3 prostate
[28] = system: IGROV1 ovarian
[29] = system: SK-OV-3 ovarian
[30] = system: HOP-62 NSCLC
[31] = system: SF-295 CNS
[32] = system: K-562 leukemia
[33] = system: NCI-H460 lung
[34] = system: OVCAR-3 ovarian
[35] = system: TK-10 renal
[36] = system: NCI-H23 lung
[37] = system: CCRF-CEM leukemia
[38] = system: SNB-19 CNS
[39] = system: RPMI-8226 leukemia
[40] = system: SK-MEL-28 melanoma
[41] = system: KM12 colon
[42] = system: BT-549 breast
[43] = system: A549 NSCLC
[44] = system: U251 CNS
[45] = system: NCI-H522 lung
[46] = system: MDA-MB-231 breast
[47] = system: A498 renal
[48] = system: CAKI-1 renal
[49] = system: SW-620 colon
[50] = system: MALME-3M melanoma
[51] = system: MDA-MB-435
[52] = system: HCT-15 colon
[53] = system: T-47D breast
[54] = system: MCF7 breast
[55] = system: HT29 colon
[56] = system: OVCAR-8 ovarian
[57] = system: NCI/ADR-RES ovarian
[58] = system: NCI-H226 lung

SMILES: CCOC(=O)c1cc2c(ccc3cc(C(=O)OCC)[nH]c32)[nH]1
- TGI [1]: > 100 µM
- TGI [2]: > 100 µM
- TGI [3]: > 100 µM
- TGI [4]: > 100 µM
- TGI [5]: > 100 µM
- TGI [6]: 58.6 µM
- TGI [7]: 66.8 µM
- TGI [8]: > 100 µM
- TGI [9]: > 100 µM
- TGI [10]: > 100 µM
- TGI [11]: > 100 µM
- TGI [12]: > 100 µM
- TGI [13]: > 100 µM
- TGI [14]: 89.1 µM
- TGI [15]: 29.6 µM
- TGI [16]: 41.8 µM
- TGI [17]: > 100 µM
- TGI [18]: 45.3 µM
- TGI [19]: > 100 µM
- TGI [20]: > 100 µM
- TGI [21]: 31.3 µM
- TGI [22]: 32.4 µM
- TGI [23]: 98.4 µM
- TGI [24]: > 100 µM
- TGI [25]: > 100 µM
- TGI [26]: > 100 µM
- TGI [27]: > 100 µM
- TGI [28]: > 100 µM
- TGI [29]: > 100 µM
- TGI [30]: 59 µM
- TGI [31]: > 100 µM
- TGI [32]: > 100 µM
- TGI [33]: > 100 µM
- TGI [34]: > 100 µM
- TGI [35]: > 100 µM
- TGI [36]: > 100 µM
- TGI [37]: > 100 µM
- TGI [38]: 74.6 µM
- TGI [39]: > 100 µM
- TGI [40]: 25.7 µM
- TGI [41]: > 100 µM
- TGI [42]: > 100 µM
- TGI [43]: > 100 µM
- TGI [44]: 19.1 µM
- TGI [45]: > 100 µM
- TGI [46]: 28.7 µM
- TGI [47]: > 100 µM
- TGI [48]: > 100 µM
- TGI [49]: > 100 µM
- TGI [50]: > 100 µM
- TGI [51]: > 100 µM
- TGI [52]: > 100 µM
- TGI [53]: > 100 µM
- TGI [54]: > 100 µM

SMILES: COc1ccccc1C1SCC(=O)N1c1ccc(-n2c(-c3ccccc3)nc3ccccc3c2=O)cc1 (stereo not given)
- TGI [1]: > 100 µM
- TGI [2]: > 100 µM
- TGI [3]: > 100 µM
- TGI [4]: > 100 µM
- TGI [5]: > 100 µM
- TGI [6]: > 100 µM
- TGI [8]: > 100 µM
- TGI [9]: > 100 µM
- TGI [10]: > 100 µM
- TGI [55]: > 100 µM
- TGI [11]: > 100 µM
- TGI [12]: > 100 µM
- TGI [56]: > 100 µM
- TGI [13]: > 100 µM
- TGI [14]: > 100 µM
- TGI [15]: > 100 µM
- TGI [16]: 43.1 µM
- TGI [18]: > 100 µM
- TGI [19]: > 100 µM
- TGI [20]: > 100 µM
- TGI [21]: > 100 µM
- TGI [22]: 56.7 µM
- TGI [23]: > 100 µM
- TGI [24]: > 100 µM
- TGI [25]: > 100 µM
- TGI [26]: > 100 µM
- TGI [57]: > 100 µM
- TGI [27]: > 100 µM
- TGI [28]: > 100 µM
- TGI [29]: > 100 µM
- TGI [30]: > 100 µM
- TGI [31]: > 100 µM
- TGI [32]: > 100 µM
- TGI [33]: > 100 µM
- TGI [34]: > 100 µM
- TGI [35]: > 100 µM
- TGI [36]: > 100 µM
- TGI [37]: > 100 µM
- TGI [38]: > 100 µM
- TGI [39]: > 100 µM
- TGI [40]: > 100 µM
- TGI [41]: > 100 µM
- TGI [42]: > 100 µM
- TGI [43]: > 100 µM
- TGI [44]: > 100 µM
- TGI [45]: > 100 µM
- TGI [46]: > 100 µM
- TGI [58]: > 100 µM
- TGI [47]: > 100 µM
- TGI [48]: > 100 µM
- TGI [49]: > 100 µM
- TGI [50]: > 100 µM
- TGI [51]: > 100 µM
- TGI [52]: > 100 µM
- TGI [53]: > 100 µM
- TGI [54]: > 100 µM
